{"source": "patent US20060035846A1", "about": "“Preventing/correcting functional disorders of the pilosebaceous unit of mammals” (L'OREAL, priority 2002, published 2006)", "test_system": "costo-vertebral organ (CVO) of the hamster", "assay": "CVO test: inhibition of the \"testosterone effect\" by food supplements", "assay_type": "in vivo", "conditions": "daily topical application of testosterone to the right CVO from day 50; control animals without food supplement; FIG. 1", "source_text": "1-A: Principle of the CVO Test:\nThe CVO of the hamster is a cutaneous region rich in pilosebaceous units.\nThe CVO test consists of determining the anti-androgenic action of different compounds on the CVO, i.e., of determining whether said compounds prevent the action of testosterone (Liao S et al., Arch Dermatol Res, 293(4), 200-206 (2001)).\nConsequently, this figure illustrates the “testosterone effect”.\nAs from the fiftieth day (dotted arrow), testosterone was applied daily to the right CVO.\nThe following products were used in the context of the in vivo CVO test such as defined above. These products were tested as food supplements, alone or in combination. • (a) the natural aroma of red wine rich in resveratrol (stilbenes) and proanthocyanidines (flavonoids) in the proportion of 0.11 g in 43 g of food (18% of polyphenols); • (b) a soja extract containing 40% of isoflavonoids, in a proportion of 0.02 g of extract in 44 g of food (40% of isoflavones); • (c) black currant pip oil rich in γ-linolenic acid (polyunsaturated fatty acid 18:3 n-6) in a proportion of 10% by weight in the foodstuff; • (d) the combination of the above three products."}
{"smiles": "C[C@]12CC[C@H]3[C@@H](CCC4=CC(=O)CC[C@@]43C)[C@@H]1CC[C@@H]2O", "note": "[testosterone]", "values": [{"measurement": "size of the right CVO compared with that of the left CVO (\"testosterone effect\")", "value": "increase in the size"}]}
